{
  "source": "paper PMC11487561",
  "about": "(ACS Chemical Neuroscience, 2024)",
  "key": {"Opiate μ (OP3, MOP)": {"biological_target": "Opiate μ (OP3, MOP) (Homo sapiens, UniProt P35372)", "sequence (P35372 whole entry)": "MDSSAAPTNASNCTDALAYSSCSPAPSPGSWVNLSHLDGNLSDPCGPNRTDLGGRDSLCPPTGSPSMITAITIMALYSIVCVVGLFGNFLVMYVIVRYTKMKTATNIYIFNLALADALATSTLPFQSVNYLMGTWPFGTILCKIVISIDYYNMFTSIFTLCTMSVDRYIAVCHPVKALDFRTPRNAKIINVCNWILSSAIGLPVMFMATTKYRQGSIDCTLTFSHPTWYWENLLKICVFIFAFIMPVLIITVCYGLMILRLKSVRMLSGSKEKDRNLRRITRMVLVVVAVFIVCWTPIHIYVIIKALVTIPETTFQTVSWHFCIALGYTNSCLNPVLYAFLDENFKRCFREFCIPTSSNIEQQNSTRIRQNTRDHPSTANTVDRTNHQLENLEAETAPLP", "assay": "Lead Profiling Screen – Eurofins Panlabs", "assay_type": "binding", "conditions": "read-out: % inh at 10 μM"}, "hERG potassium channel": {"biological_target": "hERG potassium channel (Homo sapiens, UniProt Q12809)", "sequence (Q12809 whole entry)": "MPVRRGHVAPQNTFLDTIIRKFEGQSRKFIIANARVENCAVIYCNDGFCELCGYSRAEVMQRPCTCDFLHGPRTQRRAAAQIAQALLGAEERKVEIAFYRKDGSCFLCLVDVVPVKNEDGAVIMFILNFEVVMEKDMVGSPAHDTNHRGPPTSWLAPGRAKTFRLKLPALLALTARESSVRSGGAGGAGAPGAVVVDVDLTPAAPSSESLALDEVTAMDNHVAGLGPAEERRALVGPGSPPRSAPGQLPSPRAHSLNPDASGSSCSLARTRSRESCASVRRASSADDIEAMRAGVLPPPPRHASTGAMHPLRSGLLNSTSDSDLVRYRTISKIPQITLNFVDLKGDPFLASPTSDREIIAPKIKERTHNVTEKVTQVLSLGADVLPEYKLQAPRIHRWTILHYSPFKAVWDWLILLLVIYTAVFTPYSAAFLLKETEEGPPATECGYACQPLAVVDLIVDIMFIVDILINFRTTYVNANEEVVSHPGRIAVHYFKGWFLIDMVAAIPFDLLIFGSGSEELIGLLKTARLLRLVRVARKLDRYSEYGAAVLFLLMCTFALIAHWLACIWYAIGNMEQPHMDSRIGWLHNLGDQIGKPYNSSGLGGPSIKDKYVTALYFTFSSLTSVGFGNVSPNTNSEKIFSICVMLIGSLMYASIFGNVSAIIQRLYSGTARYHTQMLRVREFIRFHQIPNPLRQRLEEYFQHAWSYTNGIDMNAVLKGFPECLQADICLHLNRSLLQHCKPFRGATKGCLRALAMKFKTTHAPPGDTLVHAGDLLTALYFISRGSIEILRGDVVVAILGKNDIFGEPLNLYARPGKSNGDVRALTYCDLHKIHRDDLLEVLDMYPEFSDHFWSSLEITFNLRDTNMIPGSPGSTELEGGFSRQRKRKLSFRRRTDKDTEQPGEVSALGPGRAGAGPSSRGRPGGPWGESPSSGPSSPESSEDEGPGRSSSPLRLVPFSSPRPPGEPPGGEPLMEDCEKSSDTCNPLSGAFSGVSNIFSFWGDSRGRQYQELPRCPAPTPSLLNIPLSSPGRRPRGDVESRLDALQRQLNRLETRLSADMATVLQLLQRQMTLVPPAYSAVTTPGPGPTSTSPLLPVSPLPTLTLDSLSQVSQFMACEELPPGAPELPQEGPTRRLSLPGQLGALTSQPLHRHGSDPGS", "assay": "Lead Profiling Screen – Eurofins Panlabs", "assay_type": "binding", "conditions": "read-out: % inh at 10 μM"}, "[1]": {"test_system": "Glutamate, NMDA, Phencyclidine", "assay": "Lead Profiling Screen – Eurofins Panlabs", "assay_type": "binding, rat"}, "Sigma σ1": {"biological_target": "Sigma σ1 (Homo sapiens, UniProt Q99720)", "sequence (Q99720 whole entry)": "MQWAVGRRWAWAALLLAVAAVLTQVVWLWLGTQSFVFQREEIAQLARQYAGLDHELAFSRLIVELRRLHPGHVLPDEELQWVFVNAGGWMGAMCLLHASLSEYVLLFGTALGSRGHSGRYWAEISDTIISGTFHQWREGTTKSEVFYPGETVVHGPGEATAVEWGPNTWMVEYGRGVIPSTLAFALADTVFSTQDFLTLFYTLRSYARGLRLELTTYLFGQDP", "assay": "Lead Profiling Screen – Eurofins Panlabs", "assay_type": "binding", "conditions": "read-out: % inh at 10 μM"}, "CYP 2C9": {"biological_target": "T1, CYP 2C9 (Homo sapiens, UniProt P11712)", "T1 construct": "from tissue; host or cells: pooled human liver microsomes (according to the earlier reading)", "T1 sequence (P11712 whole entry)": "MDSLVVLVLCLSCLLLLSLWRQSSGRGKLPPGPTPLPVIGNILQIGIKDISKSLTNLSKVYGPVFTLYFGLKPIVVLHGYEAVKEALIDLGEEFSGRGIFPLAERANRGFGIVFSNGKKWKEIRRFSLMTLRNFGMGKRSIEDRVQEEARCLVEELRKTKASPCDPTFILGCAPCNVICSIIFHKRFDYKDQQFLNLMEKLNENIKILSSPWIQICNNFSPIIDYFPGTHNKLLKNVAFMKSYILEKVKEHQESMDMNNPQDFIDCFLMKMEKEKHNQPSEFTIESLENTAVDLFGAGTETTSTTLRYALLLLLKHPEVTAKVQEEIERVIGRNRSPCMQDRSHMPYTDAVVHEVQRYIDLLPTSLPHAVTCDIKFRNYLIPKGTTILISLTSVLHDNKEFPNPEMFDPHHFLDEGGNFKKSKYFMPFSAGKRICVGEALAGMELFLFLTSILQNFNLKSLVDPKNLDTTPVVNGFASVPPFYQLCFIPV", "assay": "P450 inhibition in pooled human liver microsomes", "assay_type": "in vitro ADME", "conditions": "pooled HLM, NADPH, CYP-specific probe substrates"}, "[2]": {"assay": "MDCK-MDR1 permeability assay", "assay_type": "in vitro ADME", "conditions": "dog"}, "Nicotinic Acetylcholine": {"test_system": "Nicotinic Acetylcholine", "assay": "Lead Profiling Screen – Eurofins Panlabs", "assay_type": "binding, human"}, "Dopamine D1": {"biological_target": "T2, Dopamine D1 (Homo sapiens, UniProt P21728)", "T2 construct": "Eurofins Panlabs (contract screen)", "T2 sequence (P21728 whole entry)": "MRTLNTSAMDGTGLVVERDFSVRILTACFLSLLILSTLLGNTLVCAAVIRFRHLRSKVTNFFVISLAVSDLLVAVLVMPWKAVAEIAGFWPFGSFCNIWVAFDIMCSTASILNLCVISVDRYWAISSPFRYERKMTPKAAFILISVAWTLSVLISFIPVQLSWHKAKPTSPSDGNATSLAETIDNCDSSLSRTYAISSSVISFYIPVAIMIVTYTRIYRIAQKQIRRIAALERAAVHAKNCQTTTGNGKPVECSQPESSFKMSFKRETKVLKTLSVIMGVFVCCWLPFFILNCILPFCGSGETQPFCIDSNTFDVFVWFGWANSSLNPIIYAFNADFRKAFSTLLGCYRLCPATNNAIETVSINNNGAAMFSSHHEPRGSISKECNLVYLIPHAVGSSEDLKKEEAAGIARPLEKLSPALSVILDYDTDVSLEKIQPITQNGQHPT", "assay": "Lead Profiling Screen – Eurofins Panlabs", "assay_type": "binding", "conditions": "read-out: % inh at 10 μM"}, "Opiate δ1 (OP1, DOP)": {"biological_target": "Opiate δ1 (OP1, DOP) (Homo sapiens, UniProt P41143)", "sequence (P41143 whole entry)": "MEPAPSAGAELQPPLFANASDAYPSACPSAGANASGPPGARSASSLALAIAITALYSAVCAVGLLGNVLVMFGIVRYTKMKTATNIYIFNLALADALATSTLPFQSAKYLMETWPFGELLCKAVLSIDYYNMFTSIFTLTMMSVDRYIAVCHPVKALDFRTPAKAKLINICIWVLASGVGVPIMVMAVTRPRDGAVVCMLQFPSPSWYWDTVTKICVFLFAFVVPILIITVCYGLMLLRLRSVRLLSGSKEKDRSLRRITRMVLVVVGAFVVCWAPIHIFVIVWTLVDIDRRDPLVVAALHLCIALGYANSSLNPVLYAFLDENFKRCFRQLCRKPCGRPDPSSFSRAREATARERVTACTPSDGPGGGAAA", "assay": "Lead Profiling Screen – Eurofins Panlabs", "assay_type": "binding", "conditions": "read-out: % inh at 10 μM"}, "[3]": {"test_system": "amphetamine-induced hyperlocomotion in rats", "assay": "Rat amphetamine-induced hyperlocomotion (AHL)", "assay_type": "in vivo", "conditions": "for mean reversal of AHL: listed as VU6016235", "protocol": "Rat Amphetamine-Induced Hyperlocomotion (AHL) Protocol\nMale Harlan Sprague Dawley rats with a mean body weight of 240 g (range 221-264 g) were tested in SmartFrame Open Field locomotor activity test chambers to automatically record locomotor activity. All rats were habituated in locomotor activity enclosures for 30 min, followed by pretreatment by oral gavage for an additional 30 min with either vehicle or a dose of VU6016235 or the comparator M 4 PAM VU0467154. Next, rats were injected subcutaneously with vehicle or a dose of 0.75 mg/kg amphetamine and then monitored for an additional 60 min. Changes in locomotor activity were recorded for a total of 120 min. Locomotor data were expressed as the number of photobeam breaks/5 min intervals across the 120-min test session or as the total ambulation, calculated as sum of photobeam beam breaks from the time of amphetamine administration (60 min) until the end of the study (120 min). Time course data were analyzed by two-way ANOVA with main effects of treatment and time; changes in total ambulation were analyzed by one-way ANOVA followed by Dunnett’s post hoc test (GraphPad Prism 7 [GraphPad Software, San Diego, CA]). For all tests, α ≤ 0.05 was considered to represent statistical significance.\nFinally, percent reversal data were calculated in Microsoft Excel using the following formula: Percent Reversal = 100 - {[(total ambulation in individual animal from t = 60 to t = 120) / (mean total ambulation […]\nfrom t=60 to t=120 in the VAMP group)] * 100}. Mean percent reversal ± S.E.M. was calculated for each dose group using GraphPad Prism 7.\nAt the end of this behavioral study, each rat was euthanized, then decapitated, and the plasma and brain tissues were collected for the evaluation of exposure levels of VU6016235-05 or VU0467154-9A by pharmacokinetic analysis. […]"}, "Dopamine D4.2": {"test_system": "Dopamine D4.2", "assay": "Lead Profiling Screen – Eurofins Panlabs", "assay_type": "binding, human"}, "cardiac ion channels": {"test_system": "cardiac ion channels", "assay": "Charles River ChanTest Cardiac Channel Panel (patch clamp), whole panel", "assay_type": "cell-based, human", "conditions": "10 μM", "protocol": "page 17: Table S3. Cardiac Ion Channel Panel - Charles River Laboratories for VU6016235 Ion Channel Concentration Mean % Standard Standard n (μM) Inhibition Deviation Error hCav1.2 10 13.9 8.9 5.1 3 hCav3.2 10 6.7 2.7 1.4 4 hHCN2 10 2.6 1.9 1.1 3 hERG 10 10.9 0.9 0.4 4 hKv1.5 10 1.3 1.8 0.9 4 […] 10 4.1 5.6 2.8 4 hKv1.3 10 9 2.9 1.7 3 hNav1.5 (Tonic) 10 5.8 0.6 0.4 3 […] (Phasic) The in vitro effects of VU6016235 were evaluated at room temperature using the QPatch HT® (Sophion Bioscience A/S, Denmark), an automatic parallel patch clamp system. VU6016235 was evaluated at a concentration of 10 μM and tested in at least 3 cells (n ≥ 3). […] Next, rats were injected subcutaneously with vehicle or a dose of 0.75 mg/kg amphetamine and then monitored for an additional 60 min. Changes in locomotor activity were recorded for a total of 120 min. Locomotor data were expressed as the number of photobeam breaks/5 min intervals across the 120-min test session or as the total ambulation, calculated as sum of photobeam beam breaks from the time of amphetamine administration (60 min) until the end of the study (120 min). Time course data were analyzed by two-way ANOVA with main effects of treatment and time; changes in total ambulation were analyzed by one-way ANOVA followed by Dunnett's post hoc test (GraphPad Prism 7 [GraphPad Software, San Diego, CA]). […]"}, "Thyroid Hormone": {"test_system": "Thyroid Hormone", "assay": "Lead Profiling Screen – Eurofins Panlabs", "assay_type": "binding, rat"}, "Muscarinic M1": {"biological_target": "Muscarinic M1 (Homo sapiens, UniProt P11229)", "sequence (P11229 whole entry)": "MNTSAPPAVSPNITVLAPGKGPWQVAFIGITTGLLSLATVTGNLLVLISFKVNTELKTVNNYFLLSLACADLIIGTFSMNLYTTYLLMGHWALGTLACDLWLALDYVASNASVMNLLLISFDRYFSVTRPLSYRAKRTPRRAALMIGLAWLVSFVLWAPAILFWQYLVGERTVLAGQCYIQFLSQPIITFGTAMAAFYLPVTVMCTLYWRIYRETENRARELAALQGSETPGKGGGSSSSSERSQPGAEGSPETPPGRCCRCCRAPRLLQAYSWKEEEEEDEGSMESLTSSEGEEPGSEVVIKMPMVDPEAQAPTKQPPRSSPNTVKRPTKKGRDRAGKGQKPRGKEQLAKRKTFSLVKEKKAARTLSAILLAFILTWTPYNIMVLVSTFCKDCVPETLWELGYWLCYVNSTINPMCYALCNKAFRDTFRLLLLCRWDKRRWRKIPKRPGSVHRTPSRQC", "assay": "Lead Profiling Screen – Eurofins Panlabs", "assay_type": "binding", "conditions": "read-out: % inh at 10 μM"}},
  "data": [
    {"smiles": "Cc1nc(C)c2c(n1)sc1c(NCc3ccc(C(C)(C)O)cc3)nccc12", "note": "[22g]", "values": [
      {"measurement": "inhibition at 10 µM", "setting": "Opiate μ (OP3, MOP)", "result": 7, "unit": "%"},
      {"measurement": "inhibition at 10 µM", "setting": "hERG potassium channel", "result": 16, "unit": "%"},
      {"measurement": "% inh at 10 μM", "setting": "[1]", "result": -2, "unit": "%"},
      {"measurement": "inhibition at 10 µM", "setting": "Sigma σ1", "result": 3, "unit": "%"},
      {"measurement": "IC50", "setting": "CYP 2C9", "result": 17, "unit": "µM"},
      {"measurement": "Papp A→B", "setting": "[2]", "result": 47, "unit": "×10⁻⁶ cm/s"},
      {"measurement": "Papp B→A", "setting": "[2]", "result": 68, "unit": "×10⁻⁶ cm/s"},
      {"measurement": "% inh at 10 μM", "setting": "Nicotinic Acetylcholine", "result": -2, "unit": "%"},
      {"measurement": "inhibition at 10 µM", "setting": "Dopamine D1", "result": 21, "unit": "%"},
      {"measurement": "inhibition at 10 µM", "setting": "Opiate δ1 (OP1, DOP)", "result": -2, "unit": "%"},
      {"measurement": "mean % reversal of AHL", "setting": "[3]; 0.56 mg/kg p.o. + amphetamine 0.75 mg/kg s.c.", "result": "12.8 ± 3.9", "unit": "%"},
      {"measurement": "mean reversal of AHL", "setting": "[3]; 3 mg/kg p.o. + amphetamine 0.75 mg/kg s.c.", "result": 41.4, "unit": "%"},
      {"measurement": "mean reversal of AHL", "setting": "[3]; 10 mg/kg p.o. + amphetamine 0.75 mg/kg s.c.", "result": 54.2, "unit": "%"},
      {"measurement": "MED, reversal of AHL", "setting": "[3]; oral administration", "result": 1, "unit": "mg/kg"},
      {"measurement": "% inh at 10 μM", "setting": "Dopamine D4.2", "result": 4, "unit": "%"},
      {"measurement": "inhibition, all ion channels", "setting": "cardiac ion channels", "result": "≤ 14", "unit": "%"},
      {"measurement": "% inh at 10 μM", "setting": "Thyroid Hormone", "result": 1, "unit": "%"},
      {"measurement": "inhibition at 10 µM", "setting": "Muscarinic M1", "result": 0, "unit": "%"}
    ]}
  ]
}
